Values after ≈ are worked out from the molar mass of the structure shown.

The subject of experiment [1] is Staphylococcus aureus. Kind of experiment: Antimicrobial activity against community-acquired methicillin-resistant Staphylococcus aureus Panton-Valentine leukocidin negative by time-kill methodology. Format: functional.
The subject of experiment [2] is Staphylococcus aureus. Briefly: Antimicrobial activity against community-acquired methicillin-resistant Staphylococcus aureus Panton-Valentine leukocidin positive by time-kill methodology. The class given is functional.
The subject of experiment [3] is Staphylococcus aureus. Kind of experiment: Antimicrobial activity against methicillin-susceptible Staphylococcus aureus by time-kill methodology.
Experiment [4] deals with Staphylococcus aureus. Briefly: Antimicrobial activity against nosocomially-acquired methicillin-resistant Staphylococcus aureus by time-kill methodology. The class given is functional.
In experiment [5] the test system is Staphylococcus aureus. Briefly: Antimicrobial activity against vancomycin-intermediate Staphylococcus aureus by time-kill methodology. The class given is functional.
Experiment [6] has as its system Staphylococcus aureus. Briefly: Antimicrobial activity against vancomycin-resistant Staphylococcus aureus by time-kill methodology. Format: functional.

On to `CCCCCCCCCC(=O)N[C@@H](Cc1c[nH]c2ccccc12)C(=O)N[C@H](CC(N)=O)C(=O)N[C@@H](CC(=O)O)C(=O)N[C@@H]1C(=O)NCC(=O)N[C@@H](CCCN)C(=O)N[C@@H](CC(=O)O)C(=O)N[C@H](C)C(=O)N[C@@H](CC(=O)O)C(=O)NCC(=O)N[C@H](CO)C(=O)N[C@@H]([C@H](C)CC(=O)O)C(=O)N[C@@H](CC(=O)c2ccccc2N)C(=O)O[C@@H]1C`, for which the MIC worked out at 0.5 µg/mL (≈ 0.309 µM) against Staphylococcus aureus [1]; 0.5 µg/mL (≈ 0.309 µM) in the experiment with Staphylococcus aureus [2]; 0.25 µg/mL (≈ 0.154 µM) in the experiment on Staphylococcus aureus [3]; 0.25 µg/mL (≈ 0.154 µM) in the experiment on Staphylococcus aureus [4]; 2 µg/mL (≈ 1.23 µM) against Staphylococcus aureus [5]; 0.25 µg/mL (≈ 0.154 µM) in the experiment on Staphylococcus aureus [6].
Take `CO[C@H]1/C=C/O[C@@]2(C)Oc3c(C)c(O)c4c(O)c(c(/C=N/N5CCN(C)CC5)c(O)c4c3C2=O)NC(=O)/C(C)=C\C=C\[C@H](C)[C@H](O)[C@@H](C)[C@@H](O)[C@@H](C)[C@H](OC(C)=O)[C@@H]1C` [RIFAMPIN]: the MIC worked out at 0.016 µg/mL (≈ 0.0194 µM) with Staphylococcus aureus [1]; 0.004 µg/mL (≈ 0.00486 µM) with Staphylococcus aureus [2]; 0.008 µg/mL (≈ 0.00972 µM) against Staphylococcus aureus [3]; 0.004 µg/mL (≈ 0.00486 µM) against Staphylococcus aureus [4]; 0.016 µg/mL (≈ 0.0194 µM) against Staphylococcus aureus [5]; 0.008 µg/mL (≈ 0.00972 µM) in the experiment on Staphylococcus aureus [6].
GENTAMICIN: the MIC was determined as 1 µg/mL in the experiment on Staphylococcus aureus [1]; 1 µg/mL in the experiment on Staphylococcus aureus [2]; 1 µg/mL with Staphylococcus aureus [4]; 1 µg/mL in the experiment on Staphylococcus aureus [5]; 64 µg/mL with Staphylococcus aureus [6].

In general, MIC refers to the lowest concentration that inhibits growth of the organism. A low value points to inhibition by little substance.

These data come from ChEMBL document CHEMBL1145539 (2007).
